Assay results as given in US12416008B2, “Compositions and methods of use for small-molecule regulation of CRISPR-Cas9 activity using RNA aptamers” (priority 2019, dated 2025).
Marks after values point to notes of the source that are not given here.

B1: agRNAs created by Liu et al.: agRNAs created by Liu et al., designed to regulate gene expression via CRISPRi; SEQ ID NO: 74 (nucleic acid)
guide: ATGATAAAGCTGCTGCAATAGTTTTAGAGCTAGAAATAGCAAGTTAAAATAAGGCTAGTCCGTTATCAACTTGAAAAAGTGGCACCGAGTCGGTGCCAGCAGCTTTATCATATACCACGCGAAAGCGCCTTGGCAGATGATAAAGTTTTTTT

Experiments:
[1] = target: T1, Streptococcus pyogenes Cas9 (Streptococcus pyogenes serotype M1, UniProt Q99ZW2); test: electrophoretic mobility shift assay (EMSA) of Cas9 binding to gRNAs; settings: presence or absence of 250 μM theophylline
T1 construct: host or cells: E. coli BL21 (DE3) Rosetta
T1 sequence (Q99ZW2 whole entry): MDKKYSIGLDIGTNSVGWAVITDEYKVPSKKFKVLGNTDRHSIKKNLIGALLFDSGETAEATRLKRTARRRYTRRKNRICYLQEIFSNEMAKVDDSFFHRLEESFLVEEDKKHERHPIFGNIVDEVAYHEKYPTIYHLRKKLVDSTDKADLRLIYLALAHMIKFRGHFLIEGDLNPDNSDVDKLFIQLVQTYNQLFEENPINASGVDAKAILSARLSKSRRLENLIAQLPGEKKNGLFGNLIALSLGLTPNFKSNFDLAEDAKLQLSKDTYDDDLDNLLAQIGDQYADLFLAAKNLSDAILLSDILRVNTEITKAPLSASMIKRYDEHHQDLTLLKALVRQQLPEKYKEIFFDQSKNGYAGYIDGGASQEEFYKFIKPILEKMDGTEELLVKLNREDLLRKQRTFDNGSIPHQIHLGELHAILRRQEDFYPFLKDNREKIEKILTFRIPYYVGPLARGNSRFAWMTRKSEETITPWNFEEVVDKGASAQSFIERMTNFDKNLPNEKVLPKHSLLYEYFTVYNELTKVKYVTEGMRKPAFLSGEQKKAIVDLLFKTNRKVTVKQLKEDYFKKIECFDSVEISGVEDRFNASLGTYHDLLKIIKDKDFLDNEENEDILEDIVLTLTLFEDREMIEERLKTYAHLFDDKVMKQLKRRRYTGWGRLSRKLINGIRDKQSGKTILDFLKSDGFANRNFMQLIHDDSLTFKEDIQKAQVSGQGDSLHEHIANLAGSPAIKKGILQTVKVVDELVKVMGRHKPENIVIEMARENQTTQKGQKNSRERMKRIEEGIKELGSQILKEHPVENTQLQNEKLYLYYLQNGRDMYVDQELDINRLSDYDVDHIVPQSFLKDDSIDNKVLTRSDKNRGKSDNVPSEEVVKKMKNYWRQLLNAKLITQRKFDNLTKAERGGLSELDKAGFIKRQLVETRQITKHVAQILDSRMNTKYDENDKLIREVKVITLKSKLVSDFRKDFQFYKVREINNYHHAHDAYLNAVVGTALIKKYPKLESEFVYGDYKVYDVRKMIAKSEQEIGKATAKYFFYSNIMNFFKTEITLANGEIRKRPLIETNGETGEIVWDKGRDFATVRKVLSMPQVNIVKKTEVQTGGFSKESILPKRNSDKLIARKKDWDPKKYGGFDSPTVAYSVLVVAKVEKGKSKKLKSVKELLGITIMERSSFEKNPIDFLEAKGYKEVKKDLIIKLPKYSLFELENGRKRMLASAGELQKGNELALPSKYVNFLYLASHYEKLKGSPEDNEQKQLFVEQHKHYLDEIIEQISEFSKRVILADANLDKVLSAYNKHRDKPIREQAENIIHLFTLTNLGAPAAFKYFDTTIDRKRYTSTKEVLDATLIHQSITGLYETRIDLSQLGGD

[2] = system: galK 1 site; test: red/white colony screen of editing efficiency at the galK 1 site (CREATE recombineering); type: cell-based, E. coli MG1655; settings: for Editing Efficiency 1 mM Theo: induced for 3 hours with 1 mM theophylline; for Editing Efficiency no Theo: no theophylline, 3 hours recovery
Method: Candidates from this enriched library were analyzed to inform an improved library design. After three selection/counterselection steps, cells were plated on M63 selection medium^20 and 150 colonies were picked. Each isolated candidate was then transformed into unedited E. coli to screen for theophylline-responsive constructs using a red/white colony assay to quantify the percentage of edited bacteria. Colonies with an unedited galK site appear red whereas edited colonies appear white (FIG. 5). The percentage of white colonies is considered the editing efficiency. Gene editing was induced as previously described with or without adding theophylline and the editing efficiencies were compared.
The protocol established by Garst et al was mainly followed. LB containing kanamycin and chloramphenicol was inoculated with MGλ9 cells and grown overnight at 30° C. The stationary culture was diluted 100 fold in LB, containing chloramphenicol, kanamycin and 0.2% arabinose and grown to an OD600=0.4-0.6 in 25 mL LB. The culture was heat-shocked in a shaking waterbath at 42° C. for 15 minutes to induce expression of the lambda-red proteins from pSIM5. Then, the culture was washed in two volumes of ice-cold deionized water, resuspended in 500 μl deionized water and 50 μl of the cell suspension was electroporated with 200 ng of a CREATE plasmid that encodes gRNA and homology template. The transformants were recovered in 4 mL of LB, containing 0.2% arabinose and optionally 1 mM theophylline or 1 μM anhydrotetracycline (ATC), and shaken at 37° C. for 3 hours before plating on MacConkey Agar. To estimate the number of cfu, aliquots were plated on LB agar 1 hour after transformation.
In order to assess the frequency of gene editing, a red/white screen was used to visualize the introduction of a stop codon into the galK gene by CREATE. The original CREATE protocol was used for inducing gene editing and after 3 hours of recovery (with or without the agRNA ligand) a series of dilutions of the cultures were plated on MacConkey Agar plates containing 1% galactose. Bacterial colonies with a mutated galK* site appear white on the plates, whereas non-edited colonies appear red. The editing efficiency could be calculated by dividing the number of edited colonies over the total number of colonies. By comparing the editing efficiency in presence versus absence of the ligand, a dynamic range of the in vivo activity could be determined.
When screening the enriched libraries for switchable constructs, the transformants were recovered in 4 mL of LB broth, a dilution series was plated for every construct and the experiment was only carried out once due to the large volume of colonies screened (˜250 in total). When the constructs A9 and GU19 were characterized in detail, triplica of the experiment were carried out.

[3] = system: galK1 site; test: co-transformation of targeting gRNA plasmid with non-targeting gRNA plasmid (simulated library)
[4] = 9:1 targeting:non-targeting mixture

Molecule	Editing Efficiency 1 mM Theo [2]	Editing Efficiency no Theo [2]	other results
A1: agRNA cassette GGGGGGCCTATTTT, SEQ ID NO: 8 (expressed or natural sequence)	66%	0%	apparent binding affinity to the Cas9 protein [1]: the same apparent binding affinity to the Cas9 protein as the wild type gRNA, independent of theophylline
GC18: agRNA cassette GATTGGCCGCAACC, SEQ ID NO: 68 (expressed or natural sequence)	48%	0%	–
GC20: agRNA cassette GCAAGGCCAACACC, SEQ ID NO: 69 (expressed or natural sequence)	64%	0%	–
GU1: agRNA cassette GACGGGCCTAATAT, SEQ ID NO: 34 (expressed or natural sequence)	0%	0%	–
GU2: agRNA cassette GCGAGGCCTACTAT, SEQ ID NO: 35 (expressed or natural sequence)	0%	0%	–
GU3: agRNA cassette GCAGGGCCTCATTT, SEQ ID NO: 36 (expressed or natural sequence)	0%	0%	–
GU4: agRNA cassette GATTGGCCATACAT, SEQ ID NO: 37 (expressed or natural sequence)	0%	0%	–
GU5: agRNA cassette GGTTGGCCTAATAT, SEQ ID NO: 38 (expressed or natural sequence)	2%	0%	–
GU6: agRNA cassette GGACGGCCAAGCAT, SEQ ID NO: 39 (expressed or natural sequence)	1%	0%	–
GU8: agRNA cassette GGCAGGCCTCTTCT, SEQ ID NO: 40 (expressed or natural sequence)	1%	0%	–
GU9: agRNA cassette GTTCGGCCCCGACT, SEQ ID NO: 41 (expressed or natural sequence)	0%	0%	–
GU10: agRNA cassette GTACGGCCCATAAT, SEQ ID NO: 42 (expressed or natural sequence)	0%	0%	–
GU11: agRNA cassette GTATGGCCTCGGAT, SEQ ID NO: 43 (expressed or natural sequence)	0%	0%	–
GU12: agRNA cassette GCCGGGCCTTTTTT, SEQ ID NO: 44 (expressed or natural sequence)	7%	0%	–
GU13: agRNA cassette GGCCGGCCAAGCAT, SEQ ID NO: 45 (expressed or natural sequence)	6%	0%	–
GU14: agRNA cassette GACTGGCCTATAAT, SEQ ID NO: 46 (expressed or natural sequence)	2%	0%	–
GU15: agRNA cassette GGACGGCCTACAAT, SEQ ID NO: 47 (expressed or natural sequence)	11%	0%	–
GU16: agRNA cassette GGGAGGCCAGCGAT, SEQ ID NO: 48 (expressed or natural sequence)	0%	1%	–
GU17: agRNA cassette GTAAGGCCGCCGAT, SEQ ID NO: 49 (expressed or natural sequence)	0%	0%	–
GU18: agRNA cassette GATTGGCCTACGGT, SEQ ID NO: 50 (expressed or natural sequence)	1%	0%	–
RG53: agRNA cassette AGTGAGCTAAAAAT, SEQ ID NO: 3 (expressed or natural sequence)	22%	0%	–
sgRNA: wild-type single guide RNA; cassette AGAGCTAGCAAGTT, SEQ ID NO: 1 (chemistry not given here)	89%**	85%**	plated bacteria carrying the non-targeting plasmid [3, 4]: 84.8%; plated bacteria expected to carry the targeting CREATE plasmid [3, 4]: 15.2%; # of unedited colonies carrying non-targeting gRNA plasmid ([3]; 16 unedited colonies picked, 20 ng non-targeting + 180 ng targeting plasmid, 1 mM theophylline): 16/16; enrichment of the non-targeting plasmids ([3]; listed as wild type gRNA): 8.6±0.1 fold; enrichment of the non-targeting plasmids ([3]; listed as wt sgRNA): ~8.5 fold; percentage of edited cells ([3]; plasmid mixture 90% targeting galK1, 10% non-targeting (eGFP) gRNA, listed as wild type gRNA): 14%; percentage of edited cells ([3]; plasmid mixture 90% targeting galK1, 10% non-targeting (eGFP) gRNA, listed as wt sgRNA): 13.5%; percentage of edited cells ([3]; transformed exclusively with the targeting plasmid, listed as wild type gRNA): 89%; percentage of edited cells ([3]; transformed exclusively with the targeting plasmid, listed as wt sgRNA): 88.9%
B1	–	–	gene editing activity and ligand dependence (in words) ([2]; with and without aptamer ligand): lead to gene editing with and without the aptamer-ligand
